Assay [1] concerns H. pylori ZJC03. Nature of the assay: Antimicrobial susceptibility test of H. pylori ZJC03 (E-test paper). It is filed as cell-based, Helicobacter pylori. The following applies: clinical strain H. pylori ZJC03, E-test paper. The protocol:
The sensitivity of H. pylori ZJC03 was tested by using an E-text test paper.

Assay [2] has as its system H. pylori ZJC03. Nature of the assay: Bacteriostasis experiment by Kirby-Bauer method (inhibition zone). Type of assay: cell-based, Helicobacter pylori. The following applies: 6 mm filter paper disk, 72 h. How it is done:
Preparation of different concentrations of phenyllactic acid: phenyllactic acid was diluted two-fold to 40 mg/mL, 20 mg/mL, 10 mg/mL, 5 mg/mL, 2.5 mg/mL and 1.25 mg/mL. The solvent used for dilution was ultrapure water.
Preparation of antimicrobial susceptibility disks: filter paper was made into circular disks with a diameter of 6 mm, subjected to autoclaved sterilization for 15 min and dried. Each circular filter paper disk was completely soaked in phenyllactic acid solutions with different concentrations, and ultrapure water was taken as a blank control to obtain antimicrobial susceptibility disks with different concentrations.
Coating and culture: 100 μL of 10^8 CFU/mL of an H. pylori bacterial solution was evenly coated on a CBA medium and dried. Then the antimicrobial susceptibility disks with different concentrations of the phenyllactic acid were pasted on a plate by tweezers, and this operation was repeated 3 times for disks of each concentration. Then the plate was placed in a culture box (containing a microaerophilic gas-generating pack inside) and statically cultured at 37° C. for 72 h. The size of an inhibition zone (mm) was measured and the measurement result was recorded.

The subject of another assay is mouse gastric flora. Nature of the assay: Gastric microbiota analysis by 16S rRNA gene sequencing in H. pylori infected mice. It is filed as in vivo, C57BL/6J mice. How it is done: After one week of acclimation, mice were randomly divided into 4 groups: ZC, ZH, ZP and ZA. The mice in the groups were treated as follows:
ZP group (45 mice): every mouse was gavaged once every other day with 400 μL of the H. pylori ZJC03 bacterial suspension for 2 weeks, followed by daily gavage of 400 μL of phenyllactic acid (at the concentrations of 0.16 mg/mL, 0.32 mg/mL and 0.8 mg/mL respectively, and 15 mice for each concentration) every day for 4 weeks.
ZA group (15 mice): every mouse was gavaged once every other day with 400 μL of the H. pylori ZJC03 bacterial suspension for 2 weeks, followed by 10 days of gavage of combined antibiotics (at the dose of 400 μL per mouse per day), and after 10 days, each mouse continued to be gavaged with 400 μL of ultrapure water for 18 days.
After the molding, all the mice in each group were sacrificed by cervical dislocation. Gastric mucosa samples were washed with PBS and collected aseptically. The stomach contents were frozen in liquid nitrogen and subsequently stored at −80° C. for testing in Examples 8-10.
DNA samples were extracted from the gastric mucosa by a CTAB method, and the quality of DNA extraction was detected by agarose gel electrophoresis, and at the same time, the DNA was quantified by an ultraviolet spectrophotometer. The hypervariable regions V3-V4 of 16S rRNA of bacteria were amplified by using universal primers (341F and 805R). Paired-end sequencing of 2×250 bp was performed using a NovaSeq 6000 sequencer, and DNA extraction and sequencing were completed in the LC-Bio Technologies Co. Ltd.

Assay [3] concerns H. pylori ZJC03. Nature of the assay: Ultra microstructure observation (SEM, TEM, negative-stain TEM). Type of assay: cell-based, Helicobacter pylori. The following applies: at the MIC.
Assay [4] deals with H. pylori. The experiment in a line: Determination of minimum inhibitory concentration (agar dilution method). Type of assay: cell-based, Helicobacter pylori. The following applies: 37° C., 48 h, microaerobic. (In agar dilution, organisms are placed on agar that contains the substance at set levels.)
The subject of assay [5] is IFN-γ, IL-6, IL-1β and IL-10 in the stomach tissue. Nature of the assay: RT-qPCR of inflammatory factors in gastric mucosal tissues of H. pylori infected mice. It is filed as in vivo, C57BL/6J mice. The following applies: gavage. How it is done: After one week of acclimation, mice were randomly divided into 4 groups: ZC, ZH, ZP and ZA. The mice in the groups were treated as follows: […] After the molding, all the mice in each group were sacrificed by cervical dislocation. Gastric mucosa samples were washed with PBS and collected aseptically. The stomach contents were frozen in liquid nitrogen and subsequently stored at −80° C. for testing in Examples 8-10. The quantitative analysis of IFN-γ, IL-6, IL-1β and IL-10 in the stomach tissue was performed by RT-qPCR. Total RNA (100-500 ng/μL) was isolated from mouse stomach tissue samples according to the instructions of an RNA extraction kit, followed by reverse transcription of RNA into cDNA using the kit. The levels of each gene were normalized using GAPDH as an internal control. The RT-qPCR assay was performed according to the following thermal cycle program: pre-denaturation at 95° C. for 10 min, 40 cycles of 95° C. for 15 s and 60° C. for 30 s, and the melting curve was from 60° C. to 95° C. with a temperature increase of 0.3° C. every 15 s and the fluorescence signal was collected once, and a 2^−ΔΔCt method was used for calculation.
A general note: Real-time PCR tracks product formation cycle by cycle.

Assay [6] relates to H. pylori. Nature of the assay: Effects of sub-inhibitory concentrations on growth curves of H. pylori. It is filed as cell-based, Helicobacter pylori. How it is done: According to the determination of the bacteriostatic ability, the effects of phenyllactic acid on growth curves were analyzed. An H. pylori suspension cultured overnight was inoculated into a sterilized modified Brucella broth medium. The concentration was adjusted such that the initial inoculum size of the bacteria was 1×10^8 CFU/mL. The phenyllactic acid was added at the final concentrations of ⅛ MIC, ¼ MIC, ½ MIC and MIC, and no drug was added to the control group. The mixed solution was placed in a microaerobic environment at 37° C. for 120 h, the OD560 value was determined every other 12 h, and the changes of the growth curves at sub-inhibitory concentrations were observed and recorded.

Assay [7] concerns gastric mucosal injury caused by H. pylori infection. The experiment in a line: Histopathological observation (H&E) of gastric tissues of H. pylori infected mice. Type of assay: in vivo, C57BL/6J mice. The following applies: phenyllactic acid 0.8 mg/mL, 400 μL gavage daily 4 weeks, antibiotics 400 μL daily 10 days. The protocol: After one week of acclimation, mice were randomly divided into 4 groups: ZC, ZH, ZP and ZA. The mice in the groups were treated as follows: ZC group (15 mice): every mouse was gavaged once every other day with 400 μL of a modified Brucella broth medium for 2 weeks, followed by daily gavage of 400 μL of ultrapure water every day for 4 weeks. […] The bacterial content of the H. pylori ZJC03 suspension was 10^8 CFU/mL. After the molding, all the mice in each group were sacrificed by cervical dislocation. Gastric mucosa samples were washed with PBS and collected aseptically. The stomach contents were frozen in liquid nitrogen and subsequently stored at −80° C. for testing in Examples 8-10. The gastric mucosa was fixed in a 4% paraformaldehyde (PFA) buffer solution for 24 h at room temperature. After the treatment, the stomach tissue was embedded with an EG 1160 paraffin machine. The paraffin block was placed in an RM 2235 rotary microtome for sectioning (5 μm), and the sections were stained with hematoxylin and eosin (H&E). The stained sections were observed under a light microscope and photographed (NIKON Eclipse Ci, Japan); and the imaging system was: NIKON digital sight DS-FI2, and the photographic magnification was: 400× and 200×.

Assay [8] deals with T1, urease activity of H. pylori ZJC03 (Helicobacter pylori, UniProt P69996).
T1 construct: A total of 50 μL of the H. pylori culture solution and 50 μL of the phenyllactic acid; endogenous in cells; host or cells: Helicobacter pylori ZJC03 (live culture, 1×10^8 CFU/mL)
Nature of the assay: Urease activity of H. pylori, phenol red method. Type of assay: biochemical. The following applies: co-cultured 48 h.

The mark [9] stands for this setting: gastric mucosa, ZP = 0.8 mg/mL phenyllactic acid, ZA = antibiotic treatment.

The structures appear in SMILES notation. Converted amounts (≈) assume the structure as drawn. “And” between values parts separate entries of the source, which are not always exact repeats. Equal values may be shown once. “Also recorded” adds a separate entry of the source.

T1 sequence (P69996 whole entry): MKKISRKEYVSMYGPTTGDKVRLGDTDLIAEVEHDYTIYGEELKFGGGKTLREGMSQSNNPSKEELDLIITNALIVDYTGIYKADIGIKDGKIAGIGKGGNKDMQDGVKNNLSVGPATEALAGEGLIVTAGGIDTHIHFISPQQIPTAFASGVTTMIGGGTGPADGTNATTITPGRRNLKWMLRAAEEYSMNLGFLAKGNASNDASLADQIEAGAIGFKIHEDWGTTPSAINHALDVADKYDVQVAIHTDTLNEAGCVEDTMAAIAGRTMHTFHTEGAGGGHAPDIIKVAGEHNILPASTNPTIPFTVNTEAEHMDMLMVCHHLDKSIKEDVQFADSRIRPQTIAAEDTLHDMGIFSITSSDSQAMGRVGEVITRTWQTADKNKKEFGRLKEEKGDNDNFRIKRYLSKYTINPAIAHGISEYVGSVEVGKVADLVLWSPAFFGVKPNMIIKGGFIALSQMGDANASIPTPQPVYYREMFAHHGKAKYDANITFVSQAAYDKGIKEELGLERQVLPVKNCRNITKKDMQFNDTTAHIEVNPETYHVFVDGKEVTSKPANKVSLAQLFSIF
T1 sequence (P14916 whole entry, further chain): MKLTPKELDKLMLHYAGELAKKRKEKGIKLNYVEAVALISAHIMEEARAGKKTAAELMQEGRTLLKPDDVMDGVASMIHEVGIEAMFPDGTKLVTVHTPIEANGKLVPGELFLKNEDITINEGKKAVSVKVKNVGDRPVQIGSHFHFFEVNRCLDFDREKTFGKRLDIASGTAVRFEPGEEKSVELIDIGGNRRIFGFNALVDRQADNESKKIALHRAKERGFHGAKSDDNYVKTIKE

Consider `CC1(C)S[C@@H]2[C@H](NC(=O)[C@H](N)c3ccc(O)cc3)C(=O)N2[C@H]1C(=O)O` [Amoxicillin], for which, in the assay on H. pylori ZJC03 [1], the “Sensitivity of H. pylori ZJC03 to antibiotics” value was found to be 0.016 µg/mL.
The same measure, in the same setting: the value for `CC[C@H]1OC(=O)[C@H](C)[C@@H](O[C@H]2C[C@@](C)(OC)[C@@H](O)[C@H](C)O2)[C@H](C)[C@@H](O[C@@H]2O[C@H](C)C[C@H](N(C)C)[C@H]2O)[C@](C)(OC)C[C@@H](C)C(=O)[C@H](C)[C@@H](O)[C@]1(C)O` [Clarithromycin] was 0.8 µg/mL; that for `CN(C)[C@@H]1C(O)=C(C(N)=O)C(=O)[C@@]2(O)C(O)=C3C(=O)c4c(O)cccc4[C@@](C)(O)[C@H]3C[C@@H]12` [Tetracycline] was 0.023 µg/mL.
As to `CC(O)C(=O)O` (stereo not shown) [lactic acid], the Inhibition zone diameter result with H. pylori ZJC03 [2] (10 mg/mL solution) is listed as “no visible inhibition zone”.
For the compound `O=C(O)C(O)Cc1ccccc1` (stereo not shown) [phenyllactic acid, Phenyllactic acid], the “effect on the diversity of the gastric flora” value in the assay with mouse gastric flora (ZP group compared with ZA group) is “no significant effect”. Besides, in the assay with mouse gastric flora (after 4 weeks of treatment), the “decrease of relative abundance of Helicobacter pylori compared with ZH group” value came out at 9.46% and the “gastric flora with significant increases at the genus level (LEfSe, LDA>3)” value is “Prevotella, Lactobacillus, Faecalibaculum, Olsenella, Aerococcus”. In the assay with mouse gastric flora (setting [9]), the “Chao1 (alpha diversity)” value was determined as 464.56, the “Observed species (alpha diversity)” value is recorded as 453.6, the “Shannon (alpha diversity)” value amounted to 6.139 and the “Simpson (alpha diversity)” value came to 0.9287. In addition, in the assay on mouse gastric flora (genus level), the “Helicobacter in the stomach” value is listed as “significantly inhibit”, the “content / growth of Lactobacillus in the stomach” value is on record as “improved; also recorded: significantly promote the growth” and the “relative abundance of Lactobacillus in gastric microbiota” value turned out to be 22.39%. Moreover, in the assay on mouse gastric flora (phylum level), the “proportion of Proteobacteria in gastric flora vs ZH group” value is recorded as “significantly decreased” and the “ratio of Bacteroides to Firmicutes in gastric flora” value is listed as “increased”. Also, the “bacterial cell morphology, negative-stain transmission electron microscopy” value in the assay with H. pylori ZJC03 [3] (5-10 min) is recorded as “The flagella of the bacterial cells fell off”. Further, in the assay with H. pylori ZJC03 [3] (4 h), the “bacterial cell internal structure, transmission electron microscopy” value was “the cell walls were separated from the cell membranes” and the “bacterial cell morphology, scanning electron microscopy” value is given as “most bacterial cells appeared to be disintegrated”. Also, in the assay on H. pylori [4], the “minimum inhibitory concentration (MIC)” value amounted to 2500 µg/mL (≈ 15 mM). In [5], the “IFN-γ gene expression in gastric mucosa vs ZH modeling group” value is recorded as “significantly decreased; also recorded: significantly reduce”, the “IL-1β gene expression in gastric mucosa vs ZH modeling group” value is recorded as “significantly decreased; also recorded: significantly reduce”, the “IL-6 gene expression in gastric mucosa vs ZH modeling group” value is “significantly decreased; also recorded: significantly reduce” and the “IL-10 relative expression level in gastric mucosa vs ZH modeling group” value is “increased without a statistical difference”. Further, in the assay with H. pylori [6] (MIC, 48 h, 72 h, 96 h and 120 h), the “growth of H. pylori (growth curve, OD560)” value (shortened to “growth of H. pylori”) is “completely inhibited; also recorded: significantly inhibited”. Besides, the “growth of H. pylori” value with H. pylori [6] (¼ MIC) is reported as “a certain bactericidal effect”. Besides, the “growth of H. pylori” value in the assay on H. pylori [6] (½ MIC, 48 h, 72 h, 96 h and 120 h) was “significantly inhibited”. Also, in the assay on H. pylori [6] (⅛ MIC), the “growth of H. pylori” value is “basically not inhibited”. Moreover, in assay [7], the “H&E histopathology of gastric mucosa” value is given as “the tissue structure was substantially normal; also recorded: inflammatory cells basically disappeared”. Also, in [8] (at 0.25 MIC), the “inhibitory effect on urease activity” value is reported as “no significant inhibitory effect”. The “inhibitory effect on urease activity” value in assay [8] (at 0.5 MIC) is reported as “no significant inhibitory effect”. Also, the “inhibition rate of urease activity” value in [8] (at 2 MIC) is reported as 80.13%±1.18%. Besides, in assay [8] (at the MIC), the “inhibition rate of urease activity” value was 43.01%+2.11% and 43.01%±2.11%. The Inhibition zone diameter result with H. pylori ZJC03 [2] (1.25 mg/mL solution) is recorded as “no inhibition zone”. This compound also had an Inhibition zone diameter with H. pylori ZJC03 [2] (2.5 mg/mL solution) of 6.94 ± 0.95 mm. In the assay on H. pylori ZJC03 [2] (5 mg/mL solution), this compound came in with an Inhibition zone diameter of 7.51 ± 0.74 mm. In the assay on H. pylori ZJC03 [2] (10 mg/mL solution), this compound gave an Inhibition zone diameter of 9.98±0.97 mm. This compound also registered an Inhibition zone diameter with H. pylori ZJC03 [2] (20 mg/mL solution) of 12.41 ± 0.14 mm. In the assay on H. pylori ZJC03 [2] (40 mg/mL solution), this compound had an Inhibition zone diameter of 15.35 ± 0.94 mm.
Regarding `Cc1ncc([N+](=O)[O-])n1CCO` [Metronidazole], the “Sensitivity of H. pylori ZJC03 to antibiotics” value with H. pylori ZJC03 [1] was “insensitive”.

Values taken from US20250161249A1, “USE OF PHENYLLACTIC ACID IN INHIBITING HELICOBACTER PYLORI INFECTION” (Zhejiang Gongshang University, priority 2022, published 2025).
